# Laboratory results taken from US10005792B2, “Aminoindane-, aminotetrahydronaphthalene- and aminobenzocyclobutane-derived PRMT5-inhibitors” (CTXT PTY LTD, priority 2014, dated 2018).
# pIC50: −log10 of the molar value. Counter-ions that a name gives are not always drawn.
# Molecular target: Full-length PRMT5 enzyme co-expressed with MEP50 (Homo sapiens (Human), UniProt O14744)
# Assay: Revised PRMT5 Biochemical Assay
# Settings: 1 μM histone H4 derived peptide substrate, 1 μM S-Adenosyl methionine, 4 hours at 37 degree Celsius, Transcreener EPIGEN fluorescence polarisation
# Method: Compounds of the invention may be tested for in vitro activity in the following assay: A histone H4 derived peptide is used as substrate (amino acid sequence: […]NH2). Full-length PRMT5 enzyme (NCBI Reference sequence NP-006100.2) was co-expressed with Hiss-MEP50 in insect cells and purified via Nickel immobilized metal affinity and gel filtration chromatography (“the enzyme”).
# The 6 μL reactions are run in Greiner brand black 384-well low volume assay plates. All reactions contained assay buffer (phosphate buffered saline, 0.01% (v/v) Tween-20, 0.01% (w/v) albumin from chicken egg white, 1 mM Dithiothreitol, 1 μM peptide substrate, 1 μM S-Adenosyl methionine, and 15 ng/reaction enzyme, with the enzyme being omitted from negative control reactions. Compounds were added in a volume of 100 nL from dilution series prepared in DMSO, positive and negative control reactions receiving the same volume DMSO without compound. The plates were sealed with adhesive seals and incubated for 4 hours at 37 degree Celsius. Reaction progress was measured using the Transcreener™ EPIGEN methyltransferase assay (BellBrook Labs, Madison, Wis.) as recommended by the manufacturer. To each reaction 2 μL detection mix were added, containing coupling enzymes, fluorescence polarisation tracer, and AMP antibody. Plates were incubated for 90 minutes before being read on a PerkinElmer EnVision™ plate reader in fluorescence polarisation mode. IC50 values were obtained from the raw readings by calculating percent inhibition (% I) for each reaction relative to controls on the same plate (% I=(I−CN)/(CP−CN) where CN/CP are the averages of the negative/positive reactions, respectively), then fitting the % I data vs. compound concentration [I] to % I=([…]) where A is the lower asymptote, B is the upper asymptote, C is the IC50 value, and D is the slope.
# Sequence of Full-length PRMT5 enzyme co-expressed with MEP50 (O14744 whole entry): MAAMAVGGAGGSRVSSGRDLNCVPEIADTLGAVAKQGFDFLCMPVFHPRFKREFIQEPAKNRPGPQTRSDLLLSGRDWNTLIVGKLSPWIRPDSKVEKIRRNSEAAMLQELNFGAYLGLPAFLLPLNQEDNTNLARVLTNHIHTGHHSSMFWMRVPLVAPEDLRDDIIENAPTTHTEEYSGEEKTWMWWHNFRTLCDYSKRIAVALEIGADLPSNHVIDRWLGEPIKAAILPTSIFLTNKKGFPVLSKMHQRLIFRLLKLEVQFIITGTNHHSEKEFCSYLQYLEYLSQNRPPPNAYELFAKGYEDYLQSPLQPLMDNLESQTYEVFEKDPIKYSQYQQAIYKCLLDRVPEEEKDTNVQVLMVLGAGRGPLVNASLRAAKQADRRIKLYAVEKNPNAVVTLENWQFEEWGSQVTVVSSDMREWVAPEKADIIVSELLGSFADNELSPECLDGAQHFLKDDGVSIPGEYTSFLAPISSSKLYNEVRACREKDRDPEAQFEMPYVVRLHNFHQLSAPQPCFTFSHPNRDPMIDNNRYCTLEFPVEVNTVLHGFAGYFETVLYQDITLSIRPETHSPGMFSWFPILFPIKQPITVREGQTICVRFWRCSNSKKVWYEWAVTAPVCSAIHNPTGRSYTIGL
# Sequence of Full-length PRMT5 enzyme co-expressed with MEP50 (Q9BQA1 whole entry partner): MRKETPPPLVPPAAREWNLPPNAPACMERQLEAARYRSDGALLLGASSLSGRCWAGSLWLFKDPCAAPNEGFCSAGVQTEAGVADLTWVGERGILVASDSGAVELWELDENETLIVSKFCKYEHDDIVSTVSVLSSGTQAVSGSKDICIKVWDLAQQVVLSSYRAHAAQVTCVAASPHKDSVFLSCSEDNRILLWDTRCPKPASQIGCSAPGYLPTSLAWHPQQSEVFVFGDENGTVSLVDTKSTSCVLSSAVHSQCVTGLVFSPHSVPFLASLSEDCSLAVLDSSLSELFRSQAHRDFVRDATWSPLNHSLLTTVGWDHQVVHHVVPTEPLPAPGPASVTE
row,SMILES,pIC50
1,"CCCOc1ccccc1C(=O)NCC(O)CNC1Cc2ccccc2C1 (racemic) [Compound 73, N-(3-((2,3-dihydro-1H-inden-2-yl)amino)-2-hydroxypropyl)-2-propoxybenzamide]",5.36
2,"CC(C)Oc1ccccc1C(=O)NCC(O)CNC1Cc2ccccc2C1 (racemic) [Compound 74, N-(3-((2,3-dihydro-1H-inden-2-yl)amino)-2-hydroxypropyl)-2-isopropoxybenzamide]",5.50
3,"COCc1ccccc1C(=O)NCC(O)CNC1Cc2ccccc2C1 (racemic) [Compound 79, N-(3-((2,3-dihydro-1H-inden-2-yl)amino)-2-hydroxypropyl)-2-(methoxymethyl)benzamide]",4.62
4,"O=C(NCC(O)CNC1Cc2ccccc2C1)c1ccn(Cc2ccccc2)c(=O)c1 (racemic) [Compound 82, 1-benzyl-N-(3-((2,3-dihydro-1H-inden-2-yl)amino)-2-hydroxypropyl)-2-oxo-1,2-dihydropyridine-4-carboxamide]",5.74
5,"O=C(NCC(O)CNC1Cc2ccccc2C1)c1ccccc1OCC(F)(F)F (racemic) [Compound 97, N-(3-((2,3-dihydro-1H-inden-2-yl)amino)-2-hydroxypropyl)-2-(2,2,2-trifluoroethoxy)benzamide]",5.36
6,"C[C@@H]1COC[C@@H](C)N1C(=O)c1ccc(C(=O)NCC(O)CNC2Cc3ccccc3C2)cc1 (mixture of isomers) [Compound 101, N-(3-((2,3-dihydro-1H-inden-2-yl)amino)-2-hydroxypropyl)-4-((3R,5R)-3,5-dimethylmorpholine-4-carbonyl)benzamide]",6.34
7,"CN(c1cc(C(=O)NCC(O)CNC2Cc3ccccc3C2)ccn1)C1CCCC1 (stereo not shown) [Compound 43, 2-(cyclopentyl(methyl)amino)-N-(3-((2,3-dihydro-1H-inden-2-yl)amino)-2-hydroxypropyl)isonicotinamide]",6.00
8,"O=C(NCC(O)CNC1Cc2ccccc2C1)c1ccnc(NC2CCCC2)c1 (stereo not shown) [Compound 44, 2-(cyclopentylamino)-N-(3-((2,3-dihydro-1H-inden-2-yl)amino)-2-hydroxypropyl)isonicotinamide]",6.43
9,"O=C(NCC(O)CNC1Cc2ccccc2C1)c1cc(-c2ccccn2)[nH]n1 (stereo not shown) [Compound 45, N-(3-((2,3-dihydro-1H-inden-2-yl)amino)-2-hydroxypropyl)-5-(pyridin-2-yl)-1H-pyrazole-3-carboxamide]",4.89
10,"O=C(NCC(O)CNC1Cc2ccccc2C1)c1cnn(-c2cccnc2)c1 (stereo not shown) [Compound 46, N-(3-((2,3-dihydro-1H-inden-2-yl)amino)-2-hydroxypropyl)-1-(pyridin-3-yl)-1H-pyrazole-4-carboxamide]",5.30
11,"O=C(NCC(O)CNC1Cc2ccccc2C1)c1ccnc(N2CCOCC2)c1 (stereo not shown) [Compound 47, N-(3-((2,3-dihydro-1H-inden-2-yl)amino)-2-hydroxypropyl)-2-morpholinoisonicotinamide]",4.94
12,"O=C(NCC(O)CNC1Cc2ccccc2C1)c1ccnc(-n2cccn2)c1 (stereo not shown) [Compound 49, N-(3-((2,3-dihydro-1H-inden-2-yl)amino)-2-hydroxypropyl)-2-(1H-pyrazol-1-yl)isonicotinamide]",4.60
13,"O=C(NCC(O)CNC1Cc2ccccc2C1)c1ccnc(OC2CCNCC2)c1 (stereo not shown) [Compound 51, N-(3-((2,3-dihydro-1H-inden-2-yl)amino)-2-hydroxypropyl)-2-(piperidin-4-yloxy)isonicotinamide]",6.15
14,"CC(=O)N1CCC(Nc2cncc(C(=O)NCC(O)CNC3Cc4ccccc4C3)n2)CC1 (stereo not shown) [Compound 52, 6-((1-Acetylpiperidin-4-yl)amino)-N-(3-((2,3-dihydro-1H-inden-2-yl)amino)-2-hydroxypropyl)pyrazine-2-carboxamide]",4.13
15,"CC(=O)N1CCC(Nc2nccc(C(=O)NCC(O)CNC3Cc4ccccc4C3)n2)CC1 (stereo not shown) [Compound 54, 2-((1-Acetylpiperidin-4-yl)amino)-N-(3-((2,3-dihydro-1H-inden-2-yl)amino)-2-hydroxypropyl)pyrimidine-4-carboxamide]",5.24
16,"CC(=O)N1CC(Nc2cc(C(=O)NCC(O)CNC3Cc4ccccc4C3)ncn2)C1 (stereo not shown) [Compound 58, 6-((1-Acetylazetidin-3-yl)amino)-N-(3-((2,3-dihydro-1H-inden-2-yl)amino)-2-hydroxypropyl)pyrimidine-4-carboxamide 2,2,2-trifluoroacetic acid salt]",6.05
17,"CC(=O)N1CCC(Nc2cc(C(=O)NCC(O)CNC3Cc4ccccc4C3)ncn2)CC1 (stereo not shown) [Compound 59, 6-((1-Acetylpiperidin-4-yl)amino)-N-(3-((2,3-dihydro-1H-inden-2-yl)amino)-2-hydroxypropyl)pyrimidine-4-carboxamide 2,2,2-trifluoroacetic acid salt]",6.31

# Results, then the molecule that gave them:
row,pIC50,SMILES
1,5.16,"O=C(NCC(O)CNC1Cc2ccccc2C1)c1ccc(C(=O)N2CCCCC2)nc1 (racemic) [Compound 67, N-(3-((2,3-dihydro-1H-inden-2-yl)amino)-2-hydroxypropyl)-6-(piperidine-1-carbonyl)nicotinamide]"
2,5.46,"CC(=O)N1CCN(C(=O)Cc2ccc(C(=O)NCC(O)CNC3Cc4ccccc4C3)cc2)CC1 (racemic) [Compound 83, 4-(2-(4-acetylpiperazin-1-yl)-2-oxoethyl)-N-(3-((2,3-dihydro-1H-inden-2-yl)amino)-2-hydroxypropyl)benzamide]"
3,6.23,"CC(=O)N1CCN(C(=O)c2ccc(C(=O)NCC(O)CNC3Cc4ccccc4C3)cc2)CC1 (racemic) [Compound 84, 4-(4-acetylpiperazine-1-carbonyl)-N-(3-((2,3-dihydro-1H-inden-2-yl)amino)-2-hydroxypropyl)benzamide]"
4,5.11,"Cn1ccc(C(=O)NCC(O)CNC2Cc3ccccc3C2)cc1=O (racemic) [Compound 85, N-(3-((2,3-dihydro-1H-inden-2-yl)amino)-2-hydroxypropyl)-1-methyl 2-oxo-1,2-dihydropyridine-4-carboxamide]"
5,5.86,"O=C(NCC(O)CNC1Cc2ccccc2C1)c1ccc2c(c1)CN(C(=O)CC1CC1)C2 (racemic) [Compound 92, 2-(2-cyclopropylacetyl)-N-(3-((2,3-dihydro-1H-inden-2-yl)amino)-2-hydroxypropyl)isoindoline-5-carboxamide]"
6,6.30,"O=C(NCC(O)CNC1Cc2ccccc2C1)c1ccc2c(c1)CN(C(=O)CC1CC1)CC2 (racemic) [Compound 93, 2-(2-cyclopropylacetyl)-N-(3-((2,3-dihydro-1H-inden-2-yl)amino)-2-hydroxypropyl)-1,2,3,4-tetrahydroisoquinoline-7-carboxamide]"
7,5.87,"O=C(NCC(O)CNC1Cc2ccccc2C1)c1ccc2c(c1)CCN(C(=O)CC1CC1)C2 (racemic) [Compound 94, 2-(2-cyclopropylacetyl)-N-(3-((2,3-dihydro-1H-inden-2-yl)amino)-2-hydroxypropyl)-1,2,3,4-tetrahydroisoquinoline-6-carboxamide]"
8,6.03,"CC(=O)N1CCc2cc(C(=O)NCC(O)CNC3Cc4ccccc4C3)ccc2C1 (racemic) [Compound 95, 2-acetyl-N-(3-((2,3-dihydro-1H-inden-2-yl)amino)-2-hydroxypropyl)-1,2,3,4-tetrahydroisoquinoline-6-carboxamide]"
9,6.13,"CC(=O)N1CCc2ccc(C(=O)NCC(O)CNC3Cc4ccccc4C3)cc2C1 (racemic) [Compound 96, 2-acetyl-N-(3-((2,3-dihydro-1H-inden-2-yl)amino)-2-hydroxypropyl)-1,2,3,4-tetrahydroisoquinoline-7-carboxamide]"
10,6.86,"CC(=O)N1CCC(Nc2cccc(C(=O)NC[C@@H](O)CNC3Cc4ccccc4C3)c2)CC1 [Compound 42, (S)-3-((1-Acetylpiperidin-4-yl)amino)-N-(3-((2,3-dihydro-1H-inden-2-yl)amino)-2-hydroxypropyl)benzamide]"
11,5.32,"O=C(NCC(O)CNC1Cc2ccccc2C1)c1ccnc(N2CCCC2)c1 (stereo not shown) [Compound 48, N-(3-((2,3-dihydro-1H-inden-2-yl)amino)-2-hydroxypropyl)-2-(pyrrolidin-1-yl)isonicotinamide]"
12,6.33,"CC(=O)N1CCC(Oc2cc(C(=O)NCC(O)CNC3Cc4ccccc4C3)ccn2)CC1 (stereo not shown) [Compound 50, 2-((1-Acetylpiperidin-4-yl)oxy)-N-(3-((2,3-dihydro-1H-inden-2-yl)amino)-2-hydroxypropyl)isonicotinamide]"
13,5.60,"CC(=O)N1CCC(Nc2cccc(C(=O)NCC(O)CNC3Cc4ccccc4C3)n2)CC1 (stereo not shown) [Compound 57, 6-((1-Acetylpiperidin-4-yl)amino)-N-(3-((2,3-dihydro-1H-inden-2-yl)amino)-2-hydroxypropyl)picolinamide]"
14,6.20,"O=C(NC[C@@H](O)CNC1Cc2ccccc2C1)c1ccc(C(=O)N2CCC(O)CC2)cc1 [Compound 60, (S)-N-(3-((2,3-dihydro-1H-inden-2-yl)amino)-2-hydroxypropyl)-4-(4-hydroxypiperidine-1-carbonyl)benzamide]"
